Data published in US12685315B2, “Herbicidal combination” (UPL do Brasil Industria e Comercio de Insumos Agropecuarios …, priority 2019, dated 2026).

Assays:
Assay type in all cases: in vivo
[1] = tested on: Brachiaria decumbens (BRADC); assay: Field trial of triple mixes of amicarbazone, pre and post-emergence weed control
[2] = tested on: Cenchrus echinatus (CCHEC); assay: as above
Eleusine indica = assay: as above
Commelina benghalensis = assay: Field trial of triple mixes of amicarbazone, pre-emergence weed control; settings: dose g ai/ha: Amicarbazone 75, Mesotrione 38, Ametryn 250, mix AMC + AME + MST 75 + 38 + 250
Euphorbia heterophylla = assay: as above; settings: dose g ai/ha: Amicarbazone 250, Sulfentrazone 150, Diuron 250, mix 250 + 150 + 250
[3] = tested on: Ipomoea grandifolia (IAQGR); assay: as above
Digitaria insularis = assay: Field trial of triple mixes of amicarbazone, post-emergence weed control; settings: dose g ai/ha: Amicarbazone 75, S-metolachlor 300, Atrazine 250, mix 75 + 300 + 250
Procedure: Field trials were done to evaluate the efficacy and synergism of the triple mixes of amicarbazone with other herbicides for the control of weeds in pre and post-emergence application.
The composition of the present invention was applied. This test was performed for species of weeds: Grasses namely BRADC=Brachiaria decumbens, CCHEC=Cenchrus echinatus, ELEIN=Eleusine indica, TRCIN=Digitaria insularis and Broadleaves namely IAQGR=Ipomoea grandifolia, EPHHL=Euphorbia heterophylla, COMBE=Commelina benghalensis. Data were collected at various period after application of the composition to the soil and calculated.

Which results are given for `CC(C)c1nn(C(=O)NC(C)(C)C)c(=O)n1N` [Amicarbazone]?
% Control ([1]; Table 1, Post-Emergence, 7 DAA, dose g ai/ha: Amicarbazone 75, Isoxaflutole 15, Atrazine 250, mix 75 + 15 + 250): 43.8%; % Control ([1]; Table 1, Post-Emergence, 21 DAA, dose g ai/ha: Amicarbazone 75, Isoxaflutole 15, Atrazine 250, mix 75 + 15 + 250): 38.8%; % Control ([1]; Table 1, Post-Emergence, 28 DAA, dose g ai/ha: Amicarbazone 75, Isoxaflutole 15, Atrazine 250, mix 75 + 15 + 250): 40.0%; % Control ([1]; Table 1, Pre-Emergence, 7 DAA, dose g ai/ha: Amicarbazone 75, Isoxaflutole 15, Atrazine 250, mix 75 + 15 + 250): 0.0%; % Control ([1]; Table 1, Pre-Emergence, 21 DAA, dose g ai/ha: Amicarbazone 75, Isoxaflutole 15, Atrazine 250, mix 75 + 15 + 250): 0.0%; % Control ([1]; Table 1, Pre-Emergence, 28 DAA, dose g ai/ha: Amicarbazone 75, Isoxaflutole 15, Atrazine 250, mix 75 + 15 + 250): 0.0%; % Control ([1]; Table 5, Post-Emergence, 21 DAA, dose g ai/ha: Amicarbazone 250, Clomazone 250, Diuron 250, mix 250 + 250 + 250): 25.0%; % Control ([1]; Table 5, Post-Emergence, 28 DAA, dose g ai/ha: Amicarbazone 250, Clomazone 250, Diuron 250, mix 250 + 250 + 250): 16.3%; % Control ([1]; Table 5, Post-Emergence, 35 DAA, dose g ai/ha: Amicarbazone 250, Clomazone 250, Diuron 250, mix 250 + 250 + 250): 13.8%; % Control ([1]; Table 5, Pre-Emergence, 21 DAA, dose g ai/ha: Amicarbazone 250, Clomazone 250, Diuron 250, mix 250 + 250 + 250): 63.8%; % Control ([1]; Table 5, Pre-Emergence, 28 DAA, dose g ai/ha: Amicarbazone 250, Clomazone 250, Diuron 250, mix 250 + 250 + 250): 50.0%; % Control ([1]; Table 5, Pre-Emergence, 35 DAA, dose g ai/ha: Amicarbazone 250, Clomazone 250, Diuron 250, mix 250 + 250 + 250): 46.3%; % Control ([2]; Table 2, Post-Emergence, 7 DAA, dose g ai/ha: Amicarbazone 75, Isoxaflutole 15, Atrazine 250, mix 75 + 15 + 250): 33.8%; % Control ([2]; Table 2, Post-Emergence, 28 DAA, dose g ai/ha: Amicarbazone 75, Isoxaflutole 15, Atrazine 250, mix 75 + 15 + 250): 40.0%; % Control ([2]; Table 2, Post-Emergence, 35 DAA, dose g ai/ha: Amicarbazone 75, Isoxaflutole 15, Atrazine 250, mix 75 + 15 + 250): 36.3%; % Control ([2]; Table 6, Post-Emergence, 21 DAA, dose g ai/ha: Amicarbazone 250, Sulfentrazone 150, Diuron 250, mix 250 + 150 + 250): 0.0%; % Control ([2]; Table 6, Post-Emergence, 28 DAA, dose g ai/ha: Amicarbazone 250, Sulfentrazone 150, Diuron 250, mix 250 + 150 + 250): 0.0%; % Control ([2]; Table 6, Post-Emergence, 35 DAA, dose g ai/ha: Amicarbazone 250, Sulfentrazone 150, Diuron 250, mix 250 + 150 + 250): 0.0%; % Control ([2]; Table 6, Pre-Emergence, 21 DAA, dose g ai/ha: Amicarbazone 250, Sulfentrazone 150, Diuron 250, mix 250 + 150 + 250): 7.5%; % Control ([2]; Table 6, Pre-Emergence, 28 DAA, dose g ai/ha: Amicarbazone 250, Sulfentrazone 150, Diuron 250, mix 250 + 150 + 250): 5.0%; % Control ([2]; Table 6, Pre-Emergence, 35 DAA, dose g ai/ha: Amicarbazone 250, Sulfentrazone 150, Diuron 250, mix 250 + 150 + 250): 3.3%; % Control (Eleusine indica; Table 8, Post-Emergence, 14 DAA, dose g ai/ha: Amicarbazone 250, Sulfentrazone 150, Diuron 250, mix 250 + 150 + 250): 13.8%; % Control (Eleusine indica; Table 8, Post-Emergence, 21 DAA, dose g ai/ha: Amicarbazone 250, Sulfentrazone 150, Diuron 250, mix 250 + 150 + 250): 16.3%; % Control (Eleusine indica; Table 8, Post-Emergence, 28 DAA, dose g ai/ha: Amicarbazone 250, Sulfentrazone 150, Diuron 250, mix 250 + 150 + 250): 13.8%; % Control (Eleusine indica; Table 8, Pre-Emergence, 14 DAA, dose g ai/ha: Amicarbazone 250, Sulfentrazone 150, Diuron 250, mix 250 + 150 + 250): 68.8%; % Control (Eleusine indica; Table 8, Pre-Emergence, 21 DAA, dose g ai/ha: Amicarbazone 250, Sulfentrazone 150, Diuron 250, mix 250 + 150 + 250): 92.0%; % Control (Eleusine indica; Table 8, Pre-Emergence, 28 DAA, dose g ai/ha: Amicarbazone 250, Sulfentrazone 150, Diuron 250, mix 250 + 150 + 250): 87.0%; % Control (Eleusine indica; Table 10, Post-Emergence, 14 DAA, dose g ai/ha: Amicarbazone 75, Mesotrione 38, Ametryn 250, mix AMC + AME + MST 75 + 38 + 250): 0.0%; % Control (Eleusine indica; Table 10, Post-Emergence, 21 DAA, dose g ai/ha: Amicarbazone 75, Mesotrione 38, Ametryn 250, mix AMC + AME + MST 75 + 38 + 250): 0.0%; % Control (Eleusine indica; Table 10, Post-Emergence, 28 DAA, dose g ai/ha: Amicarbazone 75, Mesotrione 38, Ametryn 250, mix AMC + AME + MST 75 + 38 + 250): 0.0%; % Control (Eleusine indica; Table 10, Pre-Emergence, 14 DAA, dose g ai/ha: Amicarbazone 75, Mesotrione 38, Ametryn 250, mix AMC + AME + MST 75 + 38 + 250): 0.0%; % Control (Eleusine indica; Table 10, Pre-Emergence, 21 DAA, dose g ai/ha: Amicarbazone 75, Mesotrione 38, Ametryn 250, mix AMC + AME + MST 75 + 38 + 250): 0.0%; % Control (Eleusine indica; Table 10, Pre-Emergence, 28 DAA, dose g ai/ha: Amicarbazone 75, Mesotrione 38, Ametryn 250, mix AMC + AME + MST 75 + 38 + 250): 0.0%; % Control (Commelina benghalensis; Table 11, 21 DAA): 8.8%; % Control (Commelina benghalensis; Table 11, 28 DAA): 7.3%; % Control (Commelina benghalensis; Table 11, 35 DAA): 6.8%; % Control (Euphorbia heterophylla; Table 7, 7 DAA): 3.8%; % Control (Euphorbia heterophylla; Table 7, 14 DAA): 28.8%; % Control (Euphorbia heterophylla; Table 7, 21 DAA): 56.3%; % Control ([3]; Table 3, 14 DAA, dose g ai/ha: Amicarbazone 75, Isoxaflutole 15, Atrazine 250, mix 75 + 15 + 250): 11.3%; % Control ([3]; Table 3, 21 DAA, dose g ai/ha: Amicarbazone 75, Isoxaflutole 15, Atrazine 250, mix 75 + 15 + 250): 0.0%; % Control ([3]; Table 3, 28 DAA, dose g ai/ha: Amicarbazone 75, Isoxaflutole 15, Atrazine 250, mix 75 + 15 + 250): 0.0%; % Control ([3]; Table 4, 7 DAA, dose g ai/ha: Amicarbazone 250, Clomazone 250, Diuron 250, mix 250 + 250 + 250): 18.8%; % Control ([3]; Table 4, 14 DAA, dose g ai/ha: Amicarbazone 250, Clomazone 250, Diuron 250, mix 250 + 250 + 250): 73.8%; % Control ([3]; Table 4, 28 DAA, dose g ai/ha: Amicarbazone 250, Clomazone 250, Diuron 250, mix 250 + 250 + 250): 86.5%; % Control (Digitaria insularis; Table 9, 21 DAA): 7.5%; % Control (Digitaria insularis; Table 9, 28 DAA): 1.3%; % Control (Digitaria insularis; Table 9, 35 DAA): 0.5%
